Assay results from patent publication US20250388597A1, “BIFUNCTIONAL PHOTOCROSSLINKING PROBES FOR COVALENT CAPTURE OF PROTEIN-NUCLEIC ACID COMPLEXES IN CELLS” (UNIVERSITY OF SOUTHERN CALIFORNIA, priority 2022, published 2025).
“Also recorded” adds a separate entry of the source.

Tests used:
GM12878 cell lines = experiment: Crosslinking in suspension GM12878 cell lines, electrophoresis after sonication; type: cell-based; conditions: compared to the no-probe or no-UV controls; FIG. 5F
Text: For this, we tested the prototype BFPX probe 4AMT-LC-SDA in the suspension GM12878 cell lines.

NFAT1/DNA complex = molecular target: T1, NFAT1/DNA complex (Homo sapiens, UniProt Q13469); experiment: In vitro photo-crosslinking of assembled NFAT1/DNA complex, denaturing SDS gel; type: biochemical
T1 construct: human NFAT1 protein (residue 399-676, NFAT1-DBD)
T1 sequence (Q13469 399-676): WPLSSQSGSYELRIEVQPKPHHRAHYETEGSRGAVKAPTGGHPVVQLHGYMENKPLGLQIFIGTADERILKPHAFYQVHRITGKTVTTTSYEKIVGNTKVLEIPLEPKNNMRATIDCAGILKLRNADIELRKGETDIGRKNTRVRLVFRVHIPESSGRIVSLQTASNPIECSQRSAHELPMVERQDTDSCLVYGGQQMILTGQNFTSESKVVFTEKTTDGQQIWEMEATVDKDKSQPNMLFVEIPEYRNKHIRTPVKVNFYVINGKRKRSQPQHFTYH
Experimental: The probe binding and UV crosslinking were carried out as described in FIG. 5G and FIG. 7. The crosslinked complexes (lane 3 and lane 6) were further treated with DTT (100 mM, heat 50 degree C. for 30 min). The reaction mixtures were run on SDS gel and visualized by FAM fluorescence for DNA (top) and by Coomassie blue stain for protein (bottom) as described in FIG. 7. FIG. 7 depicts denaturing SDS gel analysis of covalent capture of in vitro assembled MEF2/DNA and NFAT1/DNA complexes by the BFPX probe, SPB-AAD. […] The protein/DNA complexes are incubated at room temperature for 30 min, and treated with various combination of BFPX probe (SPB-AAD) and UV illumination as described in FIG. 5G. […] The reaction mixtures were added SDS loading dye (2% SDS), boil for 10 min, and run on SDS gel (Bio-Rad Any Kd gradient gel). The same gel was visualized by FAM fluorescence for DNA (top) and by Coomassie blue stain for protein (bottom). FIG. 8C depicts denaturing SDS gel analysis of covalent capture of in vitro assembled MEF2/DNA and NFAT1/DNA complexes by the BFPX probe, SPB-PEG3-AAD. […] The reaction mixtures were run on SDS gel and visualized by FAM fluorescence for DNA (top) and by Coomassie blue stain for protein (bottom) as described in FIG. 7. […] Typically protein and DNA are mixed to bind at room temperature for 30 min, followed by addition of BFPX probes for an additional 15 min and then UV illumination. In the case of FA treatment, the reaction time is 10 min at room temperature and then quenched by 250 mM glycine. […] The UV illumination (as indicated by a positive sign) was carried out using a LED Chip (21.4 mm×21.4 mm, 365-370 nm, 30 Watt, sample distance 2 cm, exposure time 2-15 min at 4 degree C., here the exposure time is 15 min). […] The small amount of single stranded DNA is due to incomplete annealing. The higher smearing bands are most likely non-specific protein complexes. Neither of these experimental imperfections affected the main conclusion of this experiment because the double stranded-DNA bands and the specific NFAT-DNA complex bands (the middle sharp bands) are well defined and can be monitored without the interference of the other bands. […] The gel was visualized by Cy5 fluorescence for DNA. FIG. 12E depicts further characterization of BFPX crosslinking of NFAT1/DNA complexes using different DNA substrates and staining techniques. Two unlabeled DNA substrates containing a core NFAT-binding site and different flanking bases and sequence lengths ([…] ID NO: 4), 21 mer, c2: [NT] ID NO: 5), 16 mer) were used to bind the NFAT1-DBD as described in FIG. 12C. […] The reactions were then analyzed by SDS PAGE under denaturing condition as described in FIG. 12D. Because the DNA is unlabeled, the gel was stained using either cyanine-based dye (SYBR Safe) or Coomassie Blue stain (CB). […] The different size of the NFAT-c1DNA complexes (lane 2) and NFAT-c2DNA complexes (lane 4) was resolved by loading reactions of lane 2 (2a, 2b and 2c) and lane 4 (4a, 4b and 4c) as triplicates side-by-side on the same gel (lower panel) using either SYBR and CB stain. FIG. 12F depicts time course of BFPX crosslinking of NFAT1/DNA complexes. […] The reactions at different time points were then analyzed on SDS gel as described in FIG. 12D. […] When the UV exposure time is longer than 5 min, a significant amount of crosslinked NFAT-DNA complex can be formed with UV illumination without SPB-AAD.

DNA binding by NFAT1 = molecular target: T2, DNA binding by NFAT1 (Homo sapiens, UniProt Q13469); experiment: Native EMSA of the effect on DNA binding by NFAT1; type: biochemical
T2 construct: human NFAT1 protein (residue 399-676, NFAT1-DBD)
T2 sequence (Q13469 399-676): T1 sequence (Q13469 399-676)
Experimental: All binding reactions contain 10 μM 27 mer dsDNA (5′6-FAM labeled) with a NFAT-binding site, and various combinations of NFAT1 protein (14 μM), FA (1% v/v), 4AMT-LC-SDA (20 μM), with or without UV illumination (365 nm, LED, 30 Watt, sample distance 2 cm, exposure time 15 min at 4 degree C.). 10 μl of the binding reaction is run on a 10% PAGE 0.5×TBE gel. The same gel was visualized by FAM fluorescence for DNA (top) and by Coomassie blue stain for protein (bottom). The higher smearing bands in lane 3, 8, 9, and 10 are most likely non-specific protein complexes often seen when an excessive amount of protein is used to ensure all DNA is bound.
The binding reactions were performed in a buffer of 20 mM Hepes pH 7.6, 150 mM NaCl, 1 mM DTT, 12% glycerol. Typically protein and DNA are mixed to bind at room temperature for 30 min, followed by addition of BFPX probes for an additional 15 min and then UV illumination. In the case of FA treatment, the reaction time is 10 min at room temperature and then quenched by 250 mM glycine. When included (as indicated by a positive sign), the binding reaction contains 10 μM 27 mer dsDNA (Cy5-labeled) with a NFAT-binding site (the antigen receptor response element 2, ARRE2, from the IL-2 promoter, 5′-Cy5-[sequence]-3′ (SEQ ID NO: 2), the complementary strand is not labeled), 24 μM of the DNA binding domain (DBD) of human NFAT1 protein (residue 399-676, NFAT1-DBD). The UV illumination (as indicated by a positive sign) was carried out using a LED Chip (21.4 mm×21.4 mm, 365-370 nm, 30 Watt, sample distance 2 cm, exposure time 2-15 min at 4 degree C., here the exposure time is 15 min). Half of the binding reaction (7.5 μl) was run on a 10% PAGE 0.5×TBE gel and visualized by Cy5 fluorescence on DNA. The small amount of single stranded DNA is due to incomplete annealing. The higher smearing bands are most likely non-specific protein complexes. Neither of these experimental imperfections affected the main conclusion of this experiment because the double stranded-DNA bands and the specific NFAT-DNA complex bands (the middle sharp bands) are well defined and can be monitored without the interference of the other bands.
The presence of both DNA and protein in the same shifted band can be checked by the FAM fluorescence signal (top) and Coomassie stain (bottom), respectively (free NFAT is positively charged and not observable under the EMSA condition).

MEF2A/DNA complex = molecular target: T3, MEF2A/DNA complex (Homo sapiens, UniProt Q02078); experiment: In vitro photo-crosslinking of assembled MEF2/DNA complex, read on denaturing SDS/urea gel or agarose gel; type: biochemical; conditions: for selectivity for DNA binding protein versus non-DNA binding protein BSA: BSA under the same condition; for formation of covalent MEF2/DNA crosslinked complex: probe + UV, denaturing gel
T3 construct: human MEF2A DBD (residues 2-95); made in house
T3 sequence (Q02078 2-95): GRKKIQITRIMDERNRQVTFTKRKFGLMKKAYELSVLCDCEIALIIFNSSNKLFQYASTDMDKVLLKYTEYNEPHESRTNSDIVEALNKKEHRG
Text: In vitro assays have confirmed the success and the efficiency of the demo probe (AMT-LC-SDA) in crosslinking double strand DNA of various contents and DNA-binding protein human myocyte enhancer factor 2A (MEF2A) (1-95 aa) (FIG. 5C-FIG. 5E). The solid crosslinking is confirmed for the probe with UV photo crosslinking conditions by denaturing or digestive approaches such as running with 8.3 M urea gel, SDS gel, combined with sample with overnight digestion of proteinase K at 65 Celsius and denatured at high temperature of 95 Celsius with SDS loading dye. […] Under these harsh evaluation conditions, the protein got digested on the crosslinking complex thoroughly, yet the remaining crosslinked amino acids residuals still have made the DNA to be in a larger size and shifted clearly compared to other controls, which is indicated by the bold shaped arrow. Agarose gel was also used for its bigger pore size to estimate the crosslinking efficiency (UV 2 hrs), estimated by the amount of the left free DNA, our probe has reached around 30-60% efficiency (FIG. 5E), which is much higher than the UV-initiated protein DNA crosslinking without the use of a probe (10-20%) as reported in Nature Communications, volume 11, Article number: 3019 (2020). […] This further supports the idea of applying this probe for replacement of formaldehyde, it crosslinks the protein only within the proximity of nucleic acids, thereby largely reducing the random protein-protein crosslinking noise and helps to preserve the native state of protein epitopes.
The BFPX probe 4AMT-LC-SDA was synthesized with good yield by the NHS-amine chemistry using psoralen and diazirine derivatives (FIG. 5A, FIG. 5B). To test its photo crosslinking ability, human transcription factor MEF2A (the MADS-box/MEF2 domain) and double strand DNA containing a MEF2 binding site were used. We first used electrophoresis mobility shift assay (EMSA) to validate the activity of the purified recombinant MEF2A DNA-binding domain. After finding out the optimal protein to DNA ratio, the in vitro assembled MEF2/DNA complex was then subject to photocrosslinking in the presence or absence of the 4AMT-LC-SDA probe with or without UV illumination. Multiple other control experiments were carried out in parallel to test the specificity of photocrosslinking between the DNA and MEF2. Specifically, parameters such as protein/DNA amounts (1:[…]), ratio, UV time (10 m to 4 hrs), wavelength (320 to 360 nm), LV source (mercury long lamp, LED) and their distance to the reaction mixture have been optimized along the course. The MEF2 Protein and DNA were incubated first to mimic an in vivo binding mode and stoichiometry, and then the mixture was incubated with our 4AMT-LC-SDA probe to undergo UV illumination. The results were evaluated by running denaturing gels (SDS in FIG. 5D, or Urea in FIG. 5C) against the high temperature denatured reaction mixtures and checking the respective protein (silver stain) or DNA (FAM label) signals. To further rule out any other possible false positiveness during loading, proteinase K digestion was applied to all the samples including the negative controls with SDS at 65 degrees.

effect of DTT treatment on the crosslinked NFAT-DNA complex (NFAT1/DNA complex; 25 μM probe, DTT 100 mM, 50 degree C., 30 min, FIG. 5H): little effect
effect on the DNA binding by NFAT1 (DNA binding by NFAT1; FIG. 5G, FA 1% v/v, 4AMT-LC-SDA 20 μM with or without UV 365 nm): did not affect
effect on NFAT1 protein (DNA binding by NFAT1; with and without UV365, data not shown): did not affect NFAT1 protein
photo crosslinking efficiency of the MEF2-DNA complex (MEF2A/DNA complex; agarose gel, comparison of band intensities): around 50%
crosslinking efficiency, estimated by the amount of the left free DNA (MEF2A/DNA complex; agarose gel, UV 2 hrs, dsDNA + MEF2A (1-95 aa)): 30-60%
SMILES: Cc1oc2c(C)c3oc(=O)cc(C)c3cc2c1CNC(=O)CCCCCNC(=O)CCC1(C)N=N1 [4AMT-LC-SDA]
crosslink effect in cells (GM12878 cell lines): good crosslink effect
formation of covalent NFAT1/DNA crosslinked complex stable under denaturing SDS-PAGE (NFAT1/DNA complex; probe + UV 365 nm, 2% SDS, boil 10 min): highly efficient crosslinking; also recorded: crosslinked NFAT to its DNA substrate efficiently
selectivity for DNA binding protein versus non-DNA binding protein BSA (MEF2A/DNA complex): did not show any signs of forming crosslink with the DNA
selectivity for DNA binding protein versus non-DNA binding protein BSA (MEF2A/DNA complex; listed as AMT-LC-SDA): only MEF2A sample shows consumption of DNA substrate by crosslinking
formation of covalent MEF2/DNA crosslinked complex (MEF2A/DNA complex): successful photo crosslink complex between protein and DNA; also recorded: highly efficient crosslinking
formation of covalent MEF2/DNA crosslinked complex (MEF2A/DNA complex; listed as AMT-LC-SDA): the crosslinking of protein and nucleic acids takes place
